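Grown in 96-well plates, cells were treated for 48 hours with each compound at five concentrations. Insufficient inhibition: endpoint recorded as highest concentration tested. GI50: concentration for 50% inhibition of growth. The concentration for full growth arrest is given as TGI.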
Key:
Assay in all cases: NCI tumour cell line growth inhibition, 48 h
786-0 renal = test system: 786-0 renal
A498 renal = test system: A498 renal
A549 NSCLC = test system: A549 NSCLC
ACHN renal = test system: ACHN renal
BT-549 breast = test system: BT-549 breast
CAKI-1 renal = test system: CAKI-1 renal
CCRF-CEM leukemia = test system: CCRF-CEM leukemia
COLO 205 colon = test system: COLO 205 colon
DU-145 prostate = test system: DU-145 prostate
EKVX NSCLC = test system: EKVX NSCLC
HCC-2998 colon = test system: HCC-2998 colon
HCT-116 colon = test system: HCT-116 colon
HCT-15 colon = test system: HCT-15 colon
HL-60(TB) leukemia = test system: HL-60(TB) leukemia
HOP-62 NSCLC = test system: HOP-62 NSCLC
HOP-92 NSCLC = test system: HOP-92 NSCLC
HS 578T breast = test system: HS 578T breast
HT29 colon = test system: HT29 colon
IGROV1 ovarian = test system: IGROV1 ovarian
K-562 leukemia = test system: K-562 leukemia
KM12 colon = test system: KM12 colon
LOX IMVI melanoma = test system: LOX IMVI melanoma
M14 melanoma = test system: M14 melanoma
MALME-3M melanoma = test system: MALME-3M melanoma
MCF7 breast = test system: MCF7 breast
MDA-MB-231 breast = test system: MDA-MB-231 breast
MDA-MB-435 = test system: MDA-MB-435
MOLT-4 leukemia = test system: MOLT-4 leukemia
NCI-H226 lung = test system: NCI-H226 lung
NCI-H23 lung = test system: NCI-H23 lung
NCI-H460 lung = test system: NCI-H460 lung
NCI-H522 lung = test system: NCI-H522 lung
NCI/ADR-RES ovarian = test system: NCI/ADR-RES ovarian
OVCAR-3 ovarian = test system: OVCAR-3 ovarian
OVCAR-4 ovarian = test system: OVCAR-4 ovarian
OVCAR-5 ovarian = test system: OVCAR-5 ovarian
OVCAR-8 ovarian = test system: OVCAR-8 ovarian
PC-3 prostate = test system: PC-3 prostate
RPMI-8226 leukemia = test system: RPMI-8226 leukemia
RXF 393 renal = test system: RXF 393 renal
SF-268 CNS = test system: SF-268 CNS
SF-295 CNS = test system: SF-295 CNS
SF-539 CNS = test system: SF-539 CNS
SK-MEL-2 melanoma = test system: SK-MEL-2 melanoma
SK-MEL-28 melanoma = test system: SK-MEL-28 melanoma
SK-MEL-5 melanoma = test system: SK-MEL-5 melanoma
SK-OV-3 ovarian = test system: SK-OV-3 ovarian
SN12C renal = test system: SN12C renal
SNB-19 CNS = test system: SNB-19 CNS
SNB-75 CNS = test system: SNB-75 CNS
SR leukemia = test system: SR leukemia
SW-620 colon = test system: SW-620 colon
T-47D breast = test system: T-47D breast
TK-10 renal = test system: TK-10 renal
U251 CNS = test system: U251 CNS
UACC-257 melanoma = test system: UACC-257 melanoma
UACC-62 melanoma = test system: UACC-62 melanoma
UO-31 renal = test system: UO-31 renal

Q: Which results are given for Cc1c(NC(=O)c2cc(C(N)=O)nc3cc(F)ccc23)c(C(F)(F)F)nn1Cc1ccc(C#N)cc1?
A: GI50 (786-0 renal): 3.77 µM; TGI (786-0 renal): > 100 µM; GI50 (A498 renal): 15.1 µM; TGI (A498 renal): 62.4 µM; GI50 (A549 NSCLC): 16.6 µM; TGI (A549 NSCLC): > 100 µM; GI50 (ACHN renal): 12.4 µM; TGI (ACHN renal): 71.1 µM; GI50 (BT-549 breast): 1.78 µM; TGI (BT-549 breast): 25.3 µM; GI50 (CAKI-1 renal): 5.66 µM; TGI (CAKI-1 renal): 35.1 µM; GI50 (CCRF-CEM leukemia): 0.167 µM; TGI (CCRF-CEM leukemia): > 100 µM; GI50 (COLO 205 colon): 0.504 µM; TGI (COLO 205 colon): 3.23 µM; GI50 (DU-145 prostate): 1.1 µM; TGI (DU-145 prostate): > 56.4 µM; GI50 (EKVX NSCLC): 21.9 µM; TGI (EKVX NSCLC): > 100 µM; GI50 (HCC-2998 colon): 5.16 µM; TGI (HCC-2998 colon): > 100 µM; GI50 (HCT-116 colon): 2.84 µM; TGI (HCT-116 colon): > 100 µM; GI50 (HCT-15 colon): 23 µM; TGI (HCT-15 colon): > 100 µM; GI50 (HL-60(TB) leukemia): 29.8 µM; TGI (HL-60(TB) leukemia): > 100 µM; GI50 (HOP-62 NSCLC): 13.6 µM; TGI (HOP-62 NSCLC): > 87.3 µM; GI50 (HOP-92 NSCLC): 1.28 µM; TGI (HOP-92 NSCLC): 18.1 µM; GI50 (HS 578T breast): 0.0592 µM; TGI (HS 578T breast): 8.46 µM; GI50 (HT29 colon): 0.219 µM; TGI (HT29 colon): 1.91 µM; GI50 (IGROV1 ovarian): 2.02 µM; TGI (IGROV1 ovarian): > 80.7 µM; GI50 (K-562 leukemia): 13.1 µM; TGI (K-562 leukemia): > 100 µM; GI50 (KM12 colon): 0.512 µM; TGI (KM12 colon): > 37.9 µM; GI50 (LOX IMVI melanoma): 8.13 µM; TGI (LOX IMVI melanoma): > 100 µM; GI50 (M14 melanoma): 58.8 µM; TGI (M14 melanoma): > 100 µM; GI50 (MALME-3M melanoma): 14.4 µM; TGI (MALME-3M melanoma): 74.5 µM; GI50 (MCF7 breast): 0.276 µM; TGI (MCF7 breast): 17.7 µM; GI50 (MDA-MB-231 breast): 17.8 µM; TGI (MDA-MB-231 breast): > 100 µM; GI50 (MDA-MB-435): 56.9 µM; TGI (MDA-MB-435): > 100 µM; GI50 (MOLT-4 leukemia): 1.7 µM; TGI (MOLT-4 leukemia): > 100 µM; GI50 (NCI-H226 lung): 13.4 µM; TGI (NCI-H226 lung): > 100 µM; GI50 (NCI-H23 lung): 22.2 µM; TGI (NCI-H23 lung): > 100 µM; GI50 (NCI-H460 lung): 4.76 µM; TGI (NCI-H460 lung): > 100 µM; GI50 (NCI-H522 lung): 18.3 µM; TGI (NCI-H522 lung): > 64.4 µM; GI50 (NCI/ADR-RES ovarian): 12.3 µM; TGI (NCI/ADR-RES ovarian): > 100 µM; GI50 (OVCAR-3 ovarian): 2.4 µM; TGI (OVCAR-3 ovarian): > 64.5 µM; GI50 (OVCAR-4 ovarian): 4.91 µM; TGI (OVCAR-4 ovarian): > 76.9 µM; GI50 (OVCAR-5 ovarian): 8.61 µM; TGI (OVCAR-5 ovarian): 97.5 µM; GI50 (OVCAR-8 ovarian): 7.02 µM; TGI (OVCAR-8 ovarian): > 100 µM; GI50 (PC-3 prostate): 0.451 µM; TGI (PC-3 prostate): 24.4 µM; GI50 (RPMI-8226 leukemia): 0.0101 µM; TGI (RPMI-8226 leukemia): 3.67 µM; GI50 (RXF 393 renal): 5.56 µM; TGI (RXF 393 renal): 28.8 µM; GI50 (SF-268 CNS): 14.3 µM; TGI (SF-268 CNS): > 69.3 µM; GI50 (SF-295 CNS): 10.4 µM; TGI (SF-295 CNS): 54.9 µM; GI50 (SF-539 CNS): 14.3 µM; TGI (SF-539 CNS): 49.6 µM; GI50 (SK-MEL-2 melanoma): 19.2 µM; TGI (SK-MEL-2 melanoma): > 83.7 µM; GI50 (SK-MEL-28 melanoma): 37.4 µM; TGI (SK-MEL-28 melanoma): > 100 µM; GI50 (SK-MEL-5 melanoma): 16.3 µM; TGI (SK-MEL-5 melanoma): > 100 µM; GI50 (SK-OV-3 ovarian): 2.76 µM; TGI (SK-OV-3 ovarian): 21.4 µM; GI50 (SN12C renal): 1.59 µM; TGI (SN12C renal): > 72 µM; GI50 (SNB-19 CNS): 3.44 µM; TGI (SNB-19 CNS): 30 µM; GI50 (SNB-75 CNS): 5.8 µM; TGI (SNB-75 CNS): 45.2 µM; GI50 (SR leukemia): 48.8 µM; TGI (SR leukemia): > 100 µM; GI50 (SW-620 colon): 23.8 µM; TGI (SW-620 colon): > 100 µM; GI50 (T-47D breast): 0.295 µM; TGI (T-47D breast): 31.3 µM; GI50 (TK-10 renal): 3.2 µM; TGI (TK-10 renal): > 53.6 µM; GI50 (U251 CNS): 1.67 µM; TGI (U251 CNS): 18.9 µM; GI50 (UACC-257 melanoma): > 95.3 µM; TGI (UACC-257 melanoma): > 100 µM; GI50 (UACC-62 melanoma): 6.35 µM; TGI (UACC-62 melanoma): > 100 µM; GI50 (UO-31 renal): 1.78 µM; TGI (UO-31 renal): > 100 µM
